Three compounds from patent US20090221702A1, “COMPOUNDS” (priority 2005, published 2009) can be followed below.

Common to all, as to assay type: cell-based
In data set [1] the target is T1, PKB (Mus musculus, UniProt P31750).
T1 construct: endogenous in cells; host or cells: NIH3T3
The data set can be described thus: Western blotting of the phospho-Akt content (FIG. 5). The settings on record: NIH3T3 cells, method as for FIG. 2. As for the experimental part: (§1) In a typical method, NIH3T3 cells were grown in media (GibcoBRL) containing 10% NCS to near confluency in six well plates. The cells were starved using 0.5% serum for 2-3 days. The media was then removed and replaced with serum free media for 15 minutes. Subsequently, 1% NCS was added to reaction wells, and 0%, 1% and 10% NCS to control wells. After 20 minutes incubation, the compound was added, and the wells incubated for a further 15 minutes. Media was removed and sample buffer was added and the cells lysed, boiled, centrifuged.
(§2) Samples were subjected to gel electrophoresis by 10% SDS-PAGE and then Western blotted on to PVDF membrane (Biorad) according to standard protocols. Western blots were probed using primary antibodies against PKB purchased from New England Biolabs and secondary antibodies of goat anti-rabbit IgG coupled to horseradish peroxidase (Amersham). The membranes were then developed using a freshly prepared ECL solution according to standard protocols.
Western blotting of the phospho-Akt content was also monitored. The methodology used was the same as above.
For orientation: A western blot detects proteins with antibodies after separation by electrophoresis.

The test system of another data set is NIH3T3 fibroblasts. The data set can be described thus: MTT assay. The settings on record: 50 μM. An excerpt:
However its inhibitory effects on stimulated cells were not as strong. The methods used were as for Example 2.
Background: Tetrazolium dyes change colour on reduction, which living cells bring about.

Data set [2] relates to PKB. The data set can be described thus: Immunofluorescence microscopy with phospho-specific Ser473 PKB antibody in NIH 3T3 or Cos6 fibroblasts. The settings on record: for phosphorylation of PKB on S473 by compound alone: 10 min, starved Cos6 cells, without any serum. On the procedure: We therefore tested the compound's effect on PKB S473 phosphorylation by immunofluorescence microscopy with a phospho-specific PKB antibody.
(§3) NIH 3T3 of Cos6 fibroblasts growing on PLL coated coverslips in DMEM containing 10% FCS were starved for 24 hours. Stimulation with c48/80 [10 μg/ml] was always carried out in the presence of 1% FCS for 10 min. Whereas cells growing in DMEM completely depleted of serum were used for experiments with cQ [15 μg/ml]. Where indicated, cells were pretreated with 100 μM LY294002 for 30 min or 500 nM RV001 for 15 min. After treatment cells were washed with PBS, fixed with 4% PFA and permeabilised with 0.25% Triton-X/PBS and washed extensively. After blocking in 1% BSA, cells were phalloidin stained and/or incubated with phospho-specific Ser473 PKB antibody (Cell Signalling) at 4° C. over night and a Fluorescein (FITC)—conjugated goat anti-mouse IgG (Jackson Immuno Research) at room temperature for 1 h. Nuclei were stained with Dapi. Coverslips were mounted on Mowiol containing slides and sealed before analysing on a Nikon Microscope.

In data set [3] the target is T1, PKB. The data set can be described thus: Western blot monitoring PKB modulation in NIH3T3 cells (FIG. 2). The following applies: 1% NCS, various concentrations, 15 minutes. On the procedure: PKB is a protein downstream effector of PI3K, and becomes phosphorylated on (residues required for its activity) in response to the activation of PI3K. Natal Calf Serum (NCS) is a stimulator of PI3K and thus subsequently results in PKB activation. Therefore the positive control used in experiments is 10% serum and a negative control used is provided with no serum at all.
as §1, §2

The next data set relates to Cos6 fibroblasts. Kind of data set: Phalloidin staining of F-actin / actin remodelling in starved Cos6 fibroblasts. The settings on record: for insulin-stimulated actin remodelling: 15 μg/ml cQ and 5 μg/ml insulin. As for the experimental part:
as §3

Entries after “also recorded” stand apart in the source; their conditions may differ.

T1 sequence (P31750 whole entry): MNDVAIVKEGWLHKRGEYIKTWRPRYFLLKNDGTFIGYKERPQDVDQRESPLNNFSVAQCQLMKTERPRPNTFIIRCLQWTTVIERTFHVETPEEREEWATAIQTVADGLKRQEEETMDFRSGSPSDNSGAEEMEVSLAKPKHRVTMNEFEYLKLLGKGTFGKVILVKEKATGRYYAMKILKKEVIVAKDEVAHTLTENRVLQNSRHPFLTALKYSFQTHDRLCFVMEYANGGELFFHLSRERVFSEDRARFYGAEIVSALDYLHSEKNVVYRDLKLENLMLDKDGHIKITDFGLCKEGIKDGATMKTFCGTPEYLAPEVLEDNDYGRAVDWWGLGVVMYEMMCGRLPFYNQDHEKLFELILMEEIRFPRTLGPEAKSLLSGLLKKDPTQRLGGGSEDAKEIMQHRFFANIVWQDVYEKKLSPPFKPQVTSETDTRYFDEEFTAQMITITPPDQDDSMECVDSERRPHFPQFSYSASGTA

As for `Oc1ccc(CCCl)cc1Cc1cc(CCCl)ccc1O` [Compound C, 3,3′-Methylenebis[1-(2-chloroethyl)-4-hydroxybenzene]], on PKB [1], the “activation of PKB (phospho-Akt content, western blots, FIG. 5)” value is given as “can activate PKB”. Also, in the data set with NIH3T3 fibroblasts, the “cytotoxicity (MTT assay)” value is recorded as “cytotoxic effects”. The “Akt/PKB phosphorylation in starved cells” value in the data set on PKB [2] (1 μM, starved cells) is recorded as “still activatory on its own”. Besides, the “inhibitory effects on Akt/PKB phosphorylation in stimulated cells” value in the data set with PKB [2] (1 μM, stimulated cells, compared with 50 μM) was “not as strong”. For the same compound, the “Akt/PKB phosphorylation in Insulin stimulated cells” value in the data set on PKB [2] (50 μM, Insulin stimulated cells) was “inhibitory on Akt/PKB phosphorylation”. The “response with PTEN inhibition (increased PI(3,4,5)P3 levels)” value in the data set on PKB [2] (50 μM, PTEN inhibition) is recorded as “inhibited the response”. Further, the “S473 phosphorylation with PI3-kinase inhibition” value in the data set with PKB [2] (50 μM, Wortmannin or LY294002) was “increase of phosphorylation at this site”. For the same compound, in the data set with PKB [2] (50 μM, starved cells), the “Akt/PKB phosphorylation on S473 in starved cells” value is “activate Akt/PKB phosphorylation on S473”.

Turning to `COc1c(CO)cc(C)cc1CO` [Compound F, 2,6-Bis(hydroxymethyl)-4-anisole], the “activation of PKB (phospho-Akt content, western blots, FIG. 5)” value on PKB [1] was “can activate PKB”. The “effect on PKB (phosphorylation of PKB, western blots, FIG. 2)” value at PKB [3] is given as “activators”.

Regarding `Oc1ccc(CCCl)cc1` [Compound Q], the insulin-stimulated actin remodelling entry in the data set with Cos6 fibroblasts (10 min) is recorded as “inhibits insulin-stimulated actin remodelling”; in the data set on Cos6 fibroblasts (10 min, listed as cQ) it was “counteract insulin-stimulated actin remodelling; also recorded: interferes with insulin-stimulated stress fiber breakdown”. Besides, the “stress fibers in starved fibroblasts” value in the data set on Cos6 fibroblasts (15 μg/ml, 10 min, starved Cos6) is on record as “induces the loss of stress fibers in starved fibroblasts”. Moreover, the “cytoskeleton reorganisation, dependence on PI3-kinase” value with Cos6 fibroblasts (15 μg/ml, preincubation with 100 μM LY294002 for 30 min, listed as cQ) is given as “capable of reorganising the cytoskeleton independent of PI3-kinase”. Also, the “F-actin organisation after treatment” value with Cos6 fibroblasts (15 μg/ml, starved Cos6) was “produces a disorganised cytoplasmic F-actin and an actin ring juxtaposed to the plasma membrane”. Moreover, on PKB [1], the “activation of PKB (phospho-Akt content, western blots, FIG. 5)” value is recorded as “can activate PKB”. Besides, the “PKB activation with PTEN inhibitor RV001 (increased PI(3,4,5)P3 levels)” value in the data set on PKB [2] (15 μg/ml cQ, 500 nM RV001 pretreatment, 0.2 μg/ml insulin, listed as cQ) is on record as “indirectly inhibits PKB activation after cQ challenge; also recorded: inhibited PI(3,4,5)P3 mediated PKB activation”. The “compound-induced PKB phosphorylation after PI3-kinase inhibition” value in the data set with PKB [2] (15 μg/ml cQ, 30 min preincubation with 100 μM LY294002, listed as cQ) was “strongly increased cQ induced PKB phosphorylation; also recorded: increased cQ induced PKB phosphorylation”. Further, in the data set with PKB [2] (15 μg/ml, 10% FCS, starved cells), the “effect of pretreatment on activation of PKB by serum” value is given as “completely abolished the activation of PKB by 10% FCS”. The “phosphorylation of PKB on S473 by compound alone” value in the data set with PKB [2] (15 μg/ml) is recorded as “induces phosphorylation of PKB”; in the data set with PKB [2] (15 μg/ml, listed as cQ), “sufficient to induce phosphorylation of PKB on S473 residue”. For the same compound, in the data set with PKB [2] (increasing concentrations of serum), the “effect of serum on compound-induced PKB activation” value is “increasing concentrations of serum inhibit cQ induced PKB activation”.
